“Also recorded” adds a separate entry of the source.
Test system: SSTR5
Assay: Spectral flow cytometry, SSTR5 positive cells, hPITOs
Format: cell-based, human
Conditions: hPITO, 48 h, FIGS. 9G
Description: 1.3 Generation and Culture of Human PitNET Tissue Organoids (hPITOs)
Patients undergoing planned transsphenoidal surgery for PitNETs were identified in the outpatient neuroendocrinology and neurosurgery clinics and collected by the St. Joseph's Hospital and Barrow Neurological Institute Biobank under the collection protocol PHXA-05TS038, and outcomes data protocol PHXA-0004-72-29 with approval of the Institutional Review Board (IRB) and patient consent. De-identified samples were shipped in collection and transport media (Table 3) to the Zavros laboratory (University of Arizona) for processing within 24 hours of collection. Resected PitNET tissues were washed with Dulbeccos Phosphate Buffered Saline (DPBS) supplemented with 1× Penicillin/Streptomycin, 1× Kanamycin and 1× Amphotericin/Gentamycin, minced into smaller pieces, and incubated with digestion buffer (Dulbecco's Modified Eagle Medium/Nutrient Mixture F-12 (DMEM/F12) supplemented with 0.4% Collagenase 2, 0.1% Hyaluronic Acid, 0.03% Trypsin). The tissue was incubated with Accutase (Thermo Fisher Scientific) for a further 5 minutes, and the cells were pelleted and washed with DPBS supplemented with antibiotics. Dissociated cells were then seeded as Matrigel™ domes in culture dishes and overlaid with growth media (Table 4). Media was replaced every 3 days and organoids were harvested for downstream experiments or passaged after 15 days of culture (FIG. 1B).
Sonic Hedgehog (SHH) was withdrawn from the organoid growth media 16 hours prior to treatment. […] The IC50 values used for each hPITO line for each drug were determined based on dose responses (FIG. 12). […]

Row | Compound | percentage of SSTR5 positive cells | magnitude of SSTR5 induction, relacorilant vs mifepristone
1 | CC#C[C@]1(O)CC[C@H]2[C@@H]3CCC4=CC(=O)CCC4=C3[C@@H](c3ccc(N(C)C)cc3)C[C@@]21C [mifepristone, 11β-(4-dimethylaminophenyl)-17ß-hydroxy-17α-(1-propynyl)-estra-4,9-dien-3-one] | significant increase | –
2 | Cn1cc(S(=O)(=O)N2CCC3=Cc4c(cnn4-c4ccc(F)cc4)C[C@]3(C(=O)c3cc(C(F)(F)F)ccn3)C2)cn1 [relacorilant, (R)-(1-(4-fluorophenyl)-6-((1-methyl-1H-pyrazol-4-yl)sulfonyl)-4,4a,5,6,7,8-hexahydro-1H-pyrazolo[3,4-g]isoquinolin-4a-yl) (4-(trifluoromethyl)pyridin-2-yl) methanone] | significant increase; also recorded: significantly upregulated | significantly greater than that of mifepristone

— patent US20260325504A1, “Genetically Engineered Human Pituitary Corticotroph Tumor Organoids Exhibit Divergent Responses to Selective Glucocorticoid Receptor Modulators” (Corcept Therapeutics Incorporated, priority 2022, published 2026)
